From the supplement of paper PMC11208160

Experiment: recombinant barcode read abundance after kanamycin selection (control-corrected) (log10(CPM+1)); higher = more efficient recombination; sequences stand for … in AGTGCAGAGAAAATCGGCCAGTTTTCTCTGCCTGCAGTCCGCATGCCGT…AGATTTATGCAGCGGACTGCCTTTCTCCCAAAGTGATAAACCGGACAGTATCATGGACCGGTTTTCCCGGTAATCCGTATTTGCAAGGTTGGTTTCACT; site = the 11-nt target
Outline: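 Recombination efficiency in this pooled E. coli screen uses counts per million of barcodes at recombinant junctions, averaged and corrected against the control. The reported form is log10(CPM+1). Two replicates were plated on chloramphenicol/ampicillin LB agar as control and two on chloramphenicol/ampicillin/kanamycin with 0.1 mM IPTG.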
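Further: IS621 recombinase and bridge RNA in Escherichia coli cells.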

Sequence	recombinant barcode read abundance (log10)
CATCGTACTTGGGTTCTAACCTGTTGCAT (site CCTCGGACTAT)	0.0241
CATCTACCTTGGGTTCTAACCTGTTGCGG (site CATCTACCTCC)	1.39
CATCTACCTTGGGTTCTAACCTGTTGCGG (site TTGGATACTTG)	0.332
CATCTATCTTGGGTTCTAACCTGTTGCCT (site CATCGATCTAG)	0.353
CATCTATCTTGGGTTCTAACCTGTTGCCT (site CATCTATCTAG)	0.624
CATGACCCTTGGGTTCTAACCTGTTGCCT (site CAAGACCCTAG)	0.993
CATGACCCTTGGGTTCTAACCTGTTGCCT (site CACGACCCTAG)	0.774
CATGACCCTTGGGTTCTAACCTGTTGCCT (site CAGGACCCTAG)	0.85
CATGACCCTTGGGTTCTAACCTGTTGCCT (site CATGACCCTAG)	1.67
CATGATACTTGGGTTCTAACCTGTTGCCT (site ATCTTGTCTCC)	0.0865
CATGATACTTGGGTTCTAACCTGTTGCCT (site CATGATACTAG)	0.922
CATGCCTCTTGGGTTCTAACCTGTTGCCG (site CATGCCTCTCG)	2.17
CATGCCTCTTGGGTTCTAACCTGTTGCCG (site GCAAGTCCTAC)	0.227
CATGCGACTTGGGTTCTAACCTGTTGCGT (site AGCATCCCTCA)	0.234
CATGCGACTTGGGTTCTAACCTGTTGCGT (site CATGCGACTAC)	0.472
CATGCTACTTGGGTTCTAACCTGTTGCGT (site CATGCTACTAC)	0.41
CATGCTACTTGGGTTCTAACCTGTTGCGT (site GATTCTACTAC)	0.0988
CATGTACCTTGGGTTCTAACCTGTTGCCT (site AATGTACCTAG)	0.0837
CATGTACCTTGGGTTCTAACCTGTTGCCT (site CATGTACCTAG)	2.02
CATGTACCTTGGGTTCTAACCTGTTGCCT (site GATGTACCTAG)	0.145
CATGTACCTTGGGTTCTAACCTGTTGCCT (site TATGTACCTAG)	0.0813
CATTAGACTTGGGTTCTAACCTGTTGCCT (site AATTAGACTAG)	0.356

Sequence	recombinant barcode read abundance (log10)
CATTAGACTTGGGTTCTAACCTGTTGCCT (site CATTAGACTAG)	0.423
CATTAGACTTGGGTTCTAACCTGTTGCCT (site GATTAGACTAG)	0.195
CATTAGACTTGGGTTCTAACCTGTTGCCT (site TATTAGACTAG)	0.08
CATTCAACTTGGGTTCTAACCTGTTGCCT (site CATTCAACTAG)	0.133
CATTCAACTTGGGTTCTAACCTGTTGCCT (site CATTCAACTCG)	0.115
CATTTCACTTGGGTTCTAACCTGTTGCCT (site CATTTCACTAG)	0.379
CATTTCACTTGGGTTCTAACCTGTTGCCT (site GCCCATGCTCC)	0.0522
CATTTCCCTTGGGTTCTAACCTGTTGCTT (site CATTTCCCTAA)	0.122
CATTTCCCTTGGGTTCTAACCTGTTGCTT (site CATTTCCCTAG)	0.246
CATTTCTCTTGGGTTCTAACCTGTTGCCT (site AATTTCTCTAG)	0.0363
CATTTCTCTTGGGTTCTAACCTGTTGCCT (site CATTTCTCTAG)	0.341
CATTTCTCTTGGGTTCTAACCTGTTGCCT (site GATTTCTCTAG)	0.116
CATTTCTCTTGGGTTCTAACCTGTTGCCT (site TATTTCTCTAG)	0.00749
CCAAAGACTTGGGTTCTAACCTGTTGCTT (site CCAAAGACTAA)	0.653
CCAAAGACTTGGGTTCTAACCTGTTGCTT (site GGGTCACCTCC)	0
CCACACTCTTGGGTTCTAACCTGTTGCCT (site CAACACTCTAG)	0.0891
CCACACTCTTGGGTTCTAACCTGTTGCCT (site CCACACTCTAG)	1.27
CCACACTCTTGGGTTCTAACCTGTTGCCT (site CGACACTCTAG)	0.0247
CCACACTCTTGGGTTCTAACCTGTTGCCT (site CTACACTCTAG)	0.171
CCACATCCTTGGGTTCTAACCTGTTGCCT (site CCACATCCTAG)	0.289
CCACATCCTTGGGTTCTAACCTGTTGCCT (site GCACACCCTAG)	0.109
CCACCGTCTTGGGTTCTAACCTGTTGCCT (site CCACAGTCTAG)	0.171

Sequence	recombinant barcode read abundance (log10)
CCACCGTCTTGGGTTCTAACCTGTTGCCT (site CCACCGTCTAG)	0.156
CCACCGTCTTGGGTTCTAACCTGTTGCCT (site CCACGGTCTAG)	0.177
CCACCGTCTTGGGTTCTAACCTGTTGCCT (site CCACTGTCTAG)	0.175
CCACGGTCTTGGGTTCTAACCTGTTGCCT (site CCACAGTCTAG)	0.161
CCACGGTCTTGGGTTCTAACCTGTTGCCT (site CCACCGTCTAG)	0.0249
CCACGGTCTTGGGTTCTAACCTGTTGCCT (site CCACGGTCTAG)	1.1
CCACGGTCTTGGGTTCTAACCTGTTGCCT (site CCACTGTCTAG)	0.033
CCAGAAGCTTGGGTTCTAACCTGTTGCCT (site CCAGAAGCTAG)	0.179
CCAGAAGCTTGGGTTCTAACCTGTTGCCT (site CCAGCAGCTAG)	0.222
CCAGAAGCTTGGGTTCTAACCTGTTGCCT (site CCAGGAGCTAG)	0.407
CCAGAAGCTTGGGTTCTAACCTGTTGCCT (site CCAGTAGCTAG)	0.0645
CCAGGACCTTGGGTTCTAACCTGTTGCCT (site CCAGGACCTAG)	2.2
CCAGGACCTTGGGTTCTAACCTGTTGCCT (site CGAGGACCTAG)	0.291
CCAGGAGCTTGGGTTCTAACCTGTTGCCT (site CCAGAAGCTAG)	0.338
CCAGGAGCTTGGGTTCTAACCTGTTGCCT (site CCAGCAGCTAG)	0.103
CCAGGAGCTTGGGTTCTAACCTGTTGCCT (site CCAGGAGCTAG)	0.545
CCAGGAGCTTGGGTTCTAACCTGTTGCCT (site CCAGTAGCTAG)	0.109
CCAGGTACTTGGGTTCTAACCTGTTGCCT (site ACAGGTACTAG)	0.272
CCAGGTACTTGGGTTCTAACCTGTTGCCT (site CCAGGTACTAG)	0.701
CCAGGTACTTGGGTTCTAACCTGTTGCCT (site GCAGGTACTAG)	0.117
CCAGGTACTTGGGTTCTAACCTGTTGCCT (site TCAGGTACTAG)	0.182
CCAGGTCCTTGGGTTCTAACCTGTTGCAT (site CCAGGTCCTAC)	0.111

Sequence	recombinant barcode read abundance (log10)
CCAGGTCCTTGGGTTCTAACCTGTTGCAT (site CCAGGTCCTAT)	2.25
CCAGGTGCTTGGGTTCTAACCTGTTGCGG (site CCAGGTGCTCC)	1.62
CCAGGTGCTTGGGTTCTAACCTGTTGCGG (site GGCTTGACTAG)	0.0921
CCAGTAACTTGGGTTCTAACCTGTTGCCT (site CCAGTAACTAG)	0.659
CCAGTAACTTGGGTTCTAACCTGTTGCCT (site CCAGTCACTAG)	0.137
CCAGTAACTTGGGTTCTAACCTGTTGCCT (site CCAGTGACTAG)	0.082
CCAGTAACTTGGGTTCTAACCTGTTGCCT (site CCAGTTACTAG)	0.0883
CCAGTAGCTTGGGTTCTAACCTGTTGCCT (site CCAGAAGCTAG)	0.382
CCAGTAGCTTGGGTTCTAACCTGTTGCCT (site CCAGCAGCTAG)	0.161
CCAGTAGCTTGGGTTCTAACCTGTTGCCT (site CCAGGAGCTAG)	0.193
CCAGTAGCTTGGGTTCTAACCTGTTGCCT (site CCAGTAGCTAG)	0.52
CCAGTCACTTGGGTTCTAACCTGTTGCCT (site CCAGTAACTAG)	0.377
CCAGTCACTTGGGTTCTAACCTGTTGCCT (site CCAGTCACTAG)	1.88
CCAGTCACTTGGGTTCTAACCTGTTGCCT (site CCAGTGACTAG)	0.176
CCAGTCACTTGGGTTCTAACCTGTTGCCT (site CCAGTTACTAG)	0.19
CCAGTGACTTGGGTTCTAACCTGTTGCCT (site CCAGTAACTAG)	0.931
CCAGTGACTTGGGTTCTAACCTGTTGCCT (site CCAGTCACTAG)	0.299
CCAGTGACTTGGGTTCTAACCTGTTGCCT (site CCAGTGACTAG)	1.38
CCAGTGACTTGGGTTCTAACCTGTTGCCT (site CCAGTTACTAG)	0.254
CCATGGACTTGGGTTCTAACCTGTTGCCT (site CCAAGGACTAG)	0.202
